Experiments:
[1] = system: 4T1 mCherry mammary tumors; assay: Live IVIS imaging of tumor accumulation and tumor-to-background ratio; assay type: in vivo, Balb/c mice; settings: 50 nmole intravenous, after background cleared over time, day 2
[2] = free ICG; cited from earlier work
[3] = system: 4T1 mouse breast cancer cells; assay: Cellular uptake, confocal microscopy; assay type: cell-based; settings: 4T1 cells, 10 µM ICG labeled PAs, 2 hours, 37°C, confocal microscope
[4] = system: 4T1 mCherry mammary tumors; assay: Biodistribution by ICG fluorescence of tissue homogenates; assay type: in vivo, Balb/c mice; settings: 50 nmole intravenous, tissue homogenates 2 days after injection

GGGHGDCDD [C12]
tumor-to-background ratio (TBR) [1]: 6

CC1(C)C(/C=C/C=C/C=C/C=C2\N(CCCCS(=O)(=O)O)c3ccc4ccccc4c3C2(C)C)=[N+](CCCCS(=O)(=O)[O-])c2ccc3ccccc3c21 [ICG, indocyanine green]
blood circulation half-life [2]: < 5 min

GGGHGDCDD [C16]
tumor-to-background ratio (TBR) [1]: > 10
cellular uptake / membrane retention [3]: significant retention in the membrane

GGGHGDCDD [C18]
tumor-to-background ratio (TBR) [1]: > 10
cellular uptake / membrane retention [3]: significant retention in the membrane
tumor to liver ratio [4]: ~3.3

Reference: article doi:10.1101/2025.11.18.689169v1 (bioRxiv, 2025)
